As a reminder, the Kd is the concentration at which binding is half-saturated. A higher Kd goes with a looser complex.

The source of these data is PMC3551916, “The Effects of Methionine Acquisition and Synthesis on Streptococcus Pneumoniae Growth and Virulence” (PLoS ONE, 2013).

Structures are written as SMILES.

Assay [1] deals with T1, MetQ (Streptococcus pneumoniae, UniProt A0A0H2ZPC6).
T1 construct: gene SPD_0151; His6-MetQ (Sp_0149) without the predicted N-terminal signal peptide, ligand free, cloned from strain D39
T1 sequence (A0A0H2ZPC6 entry or part of it): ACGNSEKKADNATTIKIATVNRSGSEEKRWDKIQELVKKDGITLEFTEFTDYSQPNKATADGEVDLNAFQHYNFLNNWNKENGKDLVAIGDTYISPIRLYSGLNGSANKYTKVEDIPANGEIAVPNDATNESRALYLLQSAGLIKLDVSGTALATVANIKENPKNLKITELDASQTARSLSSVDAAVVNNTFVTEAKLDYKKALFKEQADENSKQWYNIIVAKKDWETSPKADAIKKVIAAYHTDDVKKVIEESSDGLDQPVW
The assay is described as follows: isothermal titration calorimetry (also tryptophan fluorescence, KD […]). The assay is classed as binding. On the technique in general: ITC needs no label: the signal is the heat of the interaction.

Assay [2] concerns the target T1, MetQ. Description: tryptophan fluorescence spectroscopy titration. The assay is classed as binding.

As for `CSCC[C@H](N)C(=O)O` [L-methionine], the equilibrium dissociation constant (Kd) at MetQ [1] is 0.0266 ± 0.00128 µM. `NC(CCS)C(=O)O` (racemic) [DL-homocysteine] came in with a Kd at MetQ [2] of 7 ± 0.26 µM.

As for `CSCCC(C)(N)C(=O)O` (racemic) [α-methyl-DL-methionine], the Kd at MetQ [2] came out at 30.1 ± 0.86 µM. This Kd is about 4.3-fold higher than that of the compound before.

`CSCC[C@@H](N)C(=O)O` [D-methionine] had a Kd on MetQ [2] of 27.4 ± 0.96 µM.
